{
  "source": "patent US20080161403A1",
  "about": "“1-(1,2 Diphenyl-Ethyl)-3-(2-Hydroxyethyl)-Thiourea Compounds For Combating Animal Pests” (priority 2005, published 2008)",
  "test_system": "Spodoptera eridania",
  "experiment": "Southern armyworm (Spodoptera eridania), 2nd instar larvae, on dipped lima bean foliage",
  "type": "in vivo",
  "settings": "300 ppm, at 5 days",
  "method": "The active compounds were formulated • a. for testing the activity against Aphis gossypii, Myzus persicae, and Aphis fabae, as 50:50 acetone:water solutions amended with 100 ppm Kinetic® (surfactant), • b. for testing the activity against Spodoptera eridania as a 10.000 ppm solution in a mixture of 35% acetone and water, which was diluted with water, if needed.\nAfter the experiments were completed, in each case the lowest concentration was determined at which the compound still caused an 75 to 100% inhibition or mortality in comparison with untreated controls (limit or minimal concentration).\nFoliage of two Sieva lima beans plants at the first expanded true-leaf stage that are contained within a single 3.8 cm square plastic pot are dipped into the test solution with agitation for 3 seconds and allowed to dry in a hood. The pot is then placed in a 25.4 cm plastic zipper top bag and infested with ten 2nd instar caterpillars. At 5 days, observations are made of mortality, reduced feeding, or any interference with normal molting.",
  "data": [
    {"smiles": "OCCNC(=S)NC(Cc1cccc(C(F)(F)F)c1)c1cc(Cl)ccc1Cl", "note": "(stereo not shown) [Example 77]", "values": [
      {"measurement": "mortality in comparison with untreated controls", "result": "over 75%"}
    ]}
  ]
}
